Active and inactive are the calls of the source.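 The calls were made as follows: active = mean IC50 for reducing PEG3 promoter reporter signal at or below a set limit, with IC50 above the limit in both counter screens; inactive = the rest, including counter screen hits.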 Some results are limits rather than exact numbers.

For 26 molecules, IC50 results are on record in PubChem BioAssay AID624167 (Sanford-Burnham Center for Chemical Genomics, 2012).

The target of assay [1] is PEG-3 (UniProt Q6IN02). As to the kind of experiment: inhibition of PEG-3 promoter-driven reporter – cell-based, HeLa, luciferase, CREF/GAPDH counter-screen panel, dose response (AID 624167). The following applies: HeLa PEG-Prom luciferase reporter, overnight, CREF/GAPDH counter-screens, mean of runs. On the technique in general: A counterscreen serves to expose hits that act by an unwanted route or on another target.

Assay [2] concerns PEG-3. The description is as above. The conditions noted are these: HeLa PEG-Prom luciferase reporter, overnight, CREF/GAPDH counter-screens.
Where [3] appears, read: run 1, dose range 1, individual replicate IC50 per panel.
[4] abbreviates: run 2, dose range 1, individual replicate IC50 per panel.

Chain of PEG-3 (UniProt Q6IN02) (Q6IN02 whole entry, looked up): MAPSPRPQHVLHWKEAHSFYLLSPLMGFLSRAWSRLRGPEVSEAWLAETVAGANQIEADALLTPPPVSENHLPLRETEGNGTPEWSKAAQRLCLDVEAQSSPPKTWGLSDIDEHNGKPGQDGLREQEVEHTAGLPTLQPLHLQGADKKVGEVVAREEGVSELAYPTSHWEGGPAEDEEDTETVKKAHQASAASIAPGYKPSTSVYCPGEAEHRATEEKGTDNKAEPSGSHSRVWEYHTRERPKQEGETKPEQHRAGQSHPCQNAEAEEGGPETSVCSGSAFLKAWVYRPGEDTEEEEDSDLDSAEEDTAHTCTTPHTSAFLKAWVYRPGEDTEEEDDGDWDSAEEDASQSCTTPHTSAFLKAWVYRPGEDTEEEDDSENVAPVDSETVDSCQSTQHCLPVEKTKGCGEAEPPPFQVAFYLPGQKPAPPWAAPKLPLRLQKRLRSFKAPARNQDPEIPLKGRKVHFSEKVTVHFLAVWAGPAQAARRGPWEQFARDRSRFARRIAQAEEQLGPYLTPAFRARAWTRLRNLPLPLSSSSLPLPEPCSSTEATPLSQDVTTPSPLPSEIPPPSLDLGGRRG

By IC50 is commonly meant the concentration that inhibits the measured activity by half. For the molecule `CCc1ccc2c(c1)Sc1ccccc1CC2N1CCN(C)CC1` (stereo not drawn), the IC50 result at PEG-3 [1] is “inactive”. Besides, the IC50 in the assay with PEG-3 [2] (setting [3]) was 19.7 µM; with PEG-3 [2] (setting [4]) it was 38 µM.
`Cc1ccc(S(=O)(=O)N(C)C)cc1NC(=O)c1cncc(Br)c1`: the IC50 entry at PEG-3 [1] is “inactive”. Moreover, the IC50 in the assay with PEG-3 [2] (setting [3]) is 47.7 µM; in the assay with PEG-3 [2] (setting [4]) it was 8.59 µM.
As to `CC(C)c1ccc(/C=N/Nc2ccc(C(=O)O)cc2)cc1`, the IC50 was 15.3 µM on PEG-3 [1], 11.1 µM in the assay on PEG-3 [2] (setting [3]) and 19.4 µM with PEG-3 [2] (setting [4]).
For `Cc1ccc(N2CC(C(=O)Nc3nccs3)CC2=O)cc1Cl` (stereo not drawn) the same measures were “inactive”, 33 µM and 10.5 µM.
Consider `Cc1cccc(C)c1-n1nnnc1C(c1ccccc1OC(F)(F)F)N1CCC(n2c(=O)[nH]c3ccccc32)CC1` (stereo not drawn), for which the IC50 on PEG-3 [1] was 12.7 µM; in the assay with PEG-3 [2] (setting [3]), 20.8 µM; in the assay on PEG-3 [2] (setting [4]), 4.64 µM.
With `Cc1cc(C)cc(NC(=O)Cn2c(=O)oc3cc(S(=O)(=O)N4CCC(C)CC4)ccc32)c1`, the IC50 entry at PEG-3 [1] is “inactive”. Also, the IC50 was greater than 100 µM in the assay with PEG-3 [2] (setting [3]) and 7.9 µM in the assay with PEG-3 [2] (setting [4]).
As for `COc1ccc(Nc2oc(COc3ccccc3OC)nc2C#N)cc1`, the IC50 result on PEG-3 [1] was “inactive”. Further, the IC50 with PEG-3 [2] (setting [3]) amounted to 5.83 µM; in the assay with PEG-3 [2] (setting [4]) it was 39.4 µM.
As for `c1cc2c3c(cccc3c1)NC1(CCC3(CC1)Nc1cccc4cccc(c14)N3)N2`, on PEG-3 [1], the IC50 entry is “inactive”. In addition, the IC50 in the assay on PEG-3 [2] (setting [3]) was found to be 18.4 µM; in the assay on PEG-3 [2] (setting [4]), 44.7 µM.
For `Cc1ccsc1C(=O)OCC(=O)c1cc(C)n(CC2CCCO2)c1C` (stereo not drawn) the same measures were 14.9 µM, 11.8 µM and 18 µM.
Take `CCCCCc1ccc(OCCCC[n+]2cccc(C)c2)c(CCCCC)c1`: the IC50 was 13.6 µM on PEG-3 [1], 16.4 µM in the assay with PEG-3 [2] (setting [3]) and 10.7 µM with PEG-3 [2] (setting [4]).
For `Cc1nc(N2CCN(c3ccccn3)CC2)c2c(C)c(C(=O)Nc3ccccc3F)sc2n1`, the IC50 result on PEG-3 [1] was “inactive”. Moreover, the results for the IC50 in the assay on PEG-3 [2] (setting [3]) and in the assay on PEG-3 [2] (setting [4]) were 9.97 µM and greater than 100 µM, respectively.
With `NC(c1csc(Nc2nccc(C(F)(F)F)n2)n1)C1CCCCC1` (stereo not drawn), the IC50 at PEG-3 [1] was 15.9 µM; in the assay with PEG-3 [2] (setting [3]), 19.1 µM; in the assay on PEG-3 [2] (setting [4]) it was 12.8 µM.
For `COc1ccc2sc(-c3ccc(S(C)(=O)=O)cc3)c(C#Cc3cncn3C)c2c1` the same measures were “inactive”, 21.2 µM and greater than 100 µM.
Consider `Cn1nnnc1Sc1ncnc2scc(-c3ccc4c(c3)OCO4)c12`, for which the IC50 result on PEG-3 [1] is “inactive”. Besides, the IC50 came out at 34.5 µM with PEG-3 [2] (setting [3]) and 53.6 µM in the assay on PEG-3 [2] (setting [4]).
In the same order, the values of `COc1cccc(N2CCN(CC(=O)Nc3ccccc3C(=O)NCc3ccccc3)CC2)c1` are “inactive”, 16.6 µM and 35 µM.
For the molecule `Cc1ccc2cc3c(N)c4c(C)ccc(C)c4nc3nc2c1`, on PEG-3 [1], the IC50 result is “inactive”. For the same molecule, the IC50 with PEG-3 [2] (setting [3]) was greater than 100 µM; in the assay with PEG-3 [2] (setting [4]), 17.1 µM.
`COc1ccc(C23CC4CC(CC(C4)C2)C3)cc1C(=O)NCCN(C)C`: the IC50 result on PEG-3 [1] was “inactive”. Further, the IC50 in the assay on PEG-3 [2] (setting [3]) came out at 20.6 µM; in the assay with PEG-3 [2] (setting [4]), 29.9 µM.
As for `COC(=O)CSC1=NS(=O)(=O)c2ccccc21`, the IC50 entry on PEG-3 [1] is “inactive”. Further, the IC50 in the assay with PEG-3 [2] (setting [3]) is greater than 100 µM; in the assay on PEG-3 [2] (setting [4]) it was 33.5 µM.
On to `O=C1N[C@@H](c2ccccc2)COC(=O)[C@@H](Cc2ccc(F)cc2)CC/C=C/C[C@H]1CC(=O)N(CCO)Cc1ccccc1`, for which the IC50 entry at PEG-3 [1] was “inactive”. Further, the IC50 with PEG-3 [2] (setting [3]) was 41 µM; in the assay with PEG-3 [2] (setting [4]), greater than 100 µM.
`CCC(C)NCCOCCOc1ccc(Cl)c2ccccc12` (stereo not drawn): the IC50 was 18.1 µM on PEG-3 [1], 18.6 µM in the assay on PEG-3 [2] (setting [3]) and 17.5 µM in the assay with PEG-3 [2] (setting [4]).
Regarding `CCCC(=O)N1CCCC(c2cc(C(=O)Nc3ccccc3)no2)C1` (stereo not drawn), the IC50 is 11.5 µM at PEG-3 [1], 8.68 µM in the assay with PEG-3 [2] (setting [3]) and 14.3 µM in the assay on PEG-3 [2] (setting [4]).
`Cc1cccc(NC(=O)CSc2nc3ccccc3c3nc(CCc4c(C)n[nH]c4C)nn23)c1`: the IC50 result on PEG-3 [1] is “inactive”. For the same molecule, the figures for the IC50 in the assay with PEG-3 [2] (setting [3]) and in the assay with PEG-3 [2] (setting [4]) were 27.9 µM and 37.7 µM, respectively.
In the case of `CC(C(=O)NC1CCCC1)N(C(=O)Cn1nnc(-c2ccc(F)cc2)n1)c1ccccc1F` (stereo not drawn), on PEG-3 [1], the IC50 result was “inactive”. Further, the figures for the IC50 with PEG-3 [2] (setting [3]) and in the assay with PEG-3 [2] (setting [4]) were 22.9 µM and 69.9 µM, respectively.
As for `O=C1C(Cl)=C(Nc2ccc(O)cc2)C(=O)c2ccccc21`, the figures for the IC50 at PEG-3 [1], in the assay on PEG-3 [2] (setting [3]) and with PEG-3 [2] (setting [4]) were 11.6 µM, 16.1 µM and 7.05 µM, respectively.
Consider `COc1ccc2c(c1OC)C(=O)N1c3ccccc3C(=O)N(c3ccccc3F)C21` (stereo not drawn), for which the values for the IC50 on PEG-3 [1], with PEG-3 [2] (setting [3]) and in the assay on PEG-3 [2] (setting [4]) were 13.4 µM, 15.1 µM and 11.6 µM, respectively.
As for `CC[n+]1c(-c2ccccc2)c2cc(N)ccc2c2ccc(N)cc21`, the figures for the half-maximal inhibitory concentration (IC50) on PEG-3 [1], in the assay with PEG-3 [2] (setting [3]) and in the assay with PEG-3 [2] (setting [4]) were 15.7 µM, 7.7 µM and 23.6 µM, respectively.
